Test results published in US7419780B2, “Methods and assays for screening protein targets” (The Trustees of Columbia University in the City of New York, priority 2000, dated 2008).

Assays:
Type in all cases: cell-based, S. cerevisiae
Conditions in all cases: 1 uM small molecule, difference to activity without small molecule, average of two trials
LexA rGR2 / B42 eDHFR = molecular target: T1, LexA rGR2 / B42 eDHFR (UniProt P06536+P0ABQ4, C656G/F620S); assay: β-galactosidase activity assay, strain V505Y
T1 construct: rat Glucocorticoid Receptor (aa 524-795) with point mutations; expressed in transfected cells; host or cells: S. cerevisiae FY250
T1 sequence (P06536 524-795 F620S/C656G limits assumed): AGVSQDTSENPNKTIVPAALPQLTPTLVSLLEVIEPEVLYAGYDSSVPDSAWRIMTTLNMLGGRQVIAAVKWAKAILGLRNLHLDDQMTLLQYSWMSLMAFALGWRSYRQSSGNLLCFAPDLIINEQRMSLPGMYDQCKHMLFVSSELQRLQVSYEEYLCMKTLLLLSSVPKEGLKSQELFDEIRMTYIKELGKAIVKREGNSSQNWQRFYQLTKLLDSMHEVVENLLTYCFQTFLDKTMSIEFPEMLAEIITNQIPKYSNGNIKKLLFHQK
T1 sequence (P0ABQ4 1-159): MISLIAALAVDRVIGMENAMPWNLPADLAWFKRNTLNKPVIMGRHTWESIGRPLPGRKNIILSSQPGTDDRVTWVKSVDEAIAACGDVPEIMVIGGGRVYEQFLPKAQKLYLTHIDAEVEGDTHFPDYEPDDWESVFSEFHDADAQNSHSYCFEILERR
From the text: (§1) Table III explains the components of each strain. Each strain was constructed from the parent yeast strain FY250 and also contains the pMW106 plasmid, which has the LacZ reporter gene that is turned on only in when the LexA DNA binding domain and the B42 activation are brought in tot he vicinity of each other. We use several different strains because we use DHFR from two different species, mDHFR is from murine, while eDHFR is from E. coli. We are asl oable to switch the small moleculebinding domains. For example, the strain containing LexA-eDHFR with B42-rGH2 is a different strain and behaves differently from the strain containing LexA-rGR2 with B42-eDHFR. We also put in short 6 amino acid linkers between the two domains of our protein chimeras and thus these are different strain as well.
(§2) The results in Table IV are averages of two separate trials. Each strain was examined with small molecules and without small molecules. The absolute activity is given as the β-galactisidase activity […]. The average β-galactosidse activity for a strain without small molecule (i.e. the negative control) was about 100 β-galactosidase units.

[1] = molecular target: T2, LexA mDHFR / B42 gly6rGR2 (UniProt P00375+P06536, C656G/F620S); assay: β-galactosidase activity assay, strain V496Y
T2 construct: rat Glucocorticoid Receptor (aa 524-795) with point mutations; expressed in transfected cells; host or cells: S. cerevisiae FY250
T2 sequence (P00375 1-187): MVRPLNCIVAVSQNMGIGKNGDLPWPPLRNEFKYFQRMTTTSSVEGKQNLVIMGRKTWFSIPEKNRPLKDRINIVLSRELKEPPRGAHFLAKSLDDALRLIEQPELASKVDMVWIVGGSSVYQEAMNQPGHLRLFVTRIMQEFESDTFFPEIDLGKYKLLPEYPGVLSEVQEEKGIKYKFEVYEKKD
T2 sequence (P06536 524-795 F620S/C656G limits assumed): T1 sequence (P06536 524-795 F620S/C656G limits assumed)
From the text: as §1, §2

[2] = molecular target: T3, LexA (GSG)2eDHFR / B42 (GSG)rGR2 (UniProt P06536+P0ABQ4, C656G/F620S); assay: β-galactosidase activity assay, strain V501Y
T3 construct: rat Glucocorticoid Receptor (aa 524-795) with point mutations; expressed in transfected cells; host or cells: S. cerevisiae FY250
T3 sequence (P0ABQ4 1-159): T1 sequence (P0ABQ4 1-159)
T3 sequence (P06536 524-795 F620S/C656G limits assumed): T1 sequence (P06536 524-795 F620S/C656G limits assumed)
From the text: as §1, §2

[3] = molecular target: T4, LexA (GSG)2rGR2 / B42 (GSG)2eDHFR (UniProt P06536+P0ABQ4, C656G/F620S); assay: β-galactosidase activity assay, strain V510Y
T4 construct: rat Glucocorticoid Receptor (aa 524-795) with point mutations; expressed in transfected cells; host or cells: S. cerevisiae FY250
T4 sequence (P06536 524-795 F620S/C656G limits assumed): T1 sequence (P06536 524-795 F620S/C656G limits assumed)
T4 sequence (P0ABQ4 1-159): T1 sequence (P0ABQ4 1-159)
From the text: as §1, §2

[4] = molecular target: T5, LexA (GSG)2rGR2 / B42 eDHFR (UniProt P06536+P0ABQ4, C656G/F620S); assay: β-galactosidase activity assay, strain V506Y
T5 construct: expressed in transfected cells; host or cells: S. cerevisiae FY250 with pMW106 lacZ reporter
T5 sequence (P06536 524-795 F620S/C656G limits assumed): T1 sequence (P06536 524-795 F620S/C656G limits assumed)
T5 sequence (P0ABQ4 1-159): T1 sequence (P0ABQ4 1-159)
From the text: as §1, §2

[5] = molecular target: T6, LexA (GSG)2rGR2 / B42 (GSG)2mDHFR (UniProt P00375+P06536, C656G/F620S); assay: β-galactosidase activity assay, strain V512Y
T6 construct: rat Glucocorticoid Receptor (aa 524-795) with point mutations; expressed in transfected cells; host or cells: S. cerevisiae FY250
T6 sequence (P06536 524-795 F620S/C656G limits assumed): T1 sequence (P06536 524-795 F620S/C656G limits assumed)
T6 sequence (P00375 1-187): T2 sequence (P00375 1-187)
From the text: as §1, §2

[6] = molecular target: T7, LexA (GSG)2mDHFR / B42 gly6rGR2 (UniProt P00375+P06536, C656G/F620S); assay: β-galactosidase activity assay, strain V503Y
T7 construct: expressed in transfected cells; host or cells: S. cerevisiae FY250 with pMW106 lacZ reporter
T7 sequence (P00375 1-187): T2 sequence (P00375 1-187)
T7 sequence (P06536 524-795 F620S/C656G limits assumed): T1 sequence (P06536 524-795 F620S/C656G limits assumed)
From the text: as §1, §2

LexA eDHFR / B42 rGR2 = molecular target: T8, LexA eDHFR / B42 rGR2 (UniProt P06536+P0ABQ4, C656G/F620S); assay: β-galactosidase activity assay, strain V493Y
T8 construct: rat Glucocorticoid Receptor (aa 524-795) with point mutations; expressed in transfected cells; host or cells: S. cerevisiae FY250
T8 sequence (P0ABQ4 1-159): T1 sequence (P0ABQ4 1-159)
T8 sequence (P06536 524-795 F620S/C656G limits assumed): T1 sequence (P06536 524-795 F620S/C656G limits assumed)
From the text: as §1, §2

[7] = molecular target: T9, LexA (GSG)2rGR2 / B42 mDHFR (UniProt P00375+P06536, C656G/F620S); assay: β-galactosidase activity assay, strain V508Y
T9 construct: expressed in transfected cells; host or cells: S. cerevisiae FY250 with pMW106 lacZ reporter
T9 sequence (P06536 524-795 F620S/C656G limits assumed): T1 sequence (P06536 524-795 F620S/C656G limits assumed)
T9 sequence (P00375 1-187): T2 sequence (P00375 1-187)
From the text: as §1, §2

[8] = molecular target: T10, LexA (GSG)2mDHFR / B42 rGR2 (UniProt P00375+P06536, C656G/F620S); assay: β-galactosidase activity assay, strain V502Y
T10 construct: rat Glucocorticoid Receptor (aa 524-795) with point mutations; expressed in transfected cells; host or cells: S. cerevisiae FY250
T10 sequence (P00375 1-187): T2 sequence (P00375 1-187)
T10 sequence (P06536 524-795 F620S/C656G limits assumed): T1 sequence (P06536 524-795 F620S/C656G limits assumed)
From the text: as §1, §2

Structure (SMILES): C[C@@H]1C[C@H]2C3CCC4=CC(=O)C=C[C@]4(C)[C@@]3(F)[C@@H](O)C[C@]2(C)[C@@]1(O)C(=O)NCCSCCCCCCCCSCC[C@H](NC(=O)c1ccc(N(C)Cc2cnc3nc(N)nc(N)c3n2)cc1)C(=O)O (stereo partly shown) [D8M]
- B-gal activity (LexA rGR2 / B42 eDHFR): 2532 β-galactosidase units
- B-gal activity [1]: −27 β-galactosidase units
- B-gal activity [2]: 6660 β-galactosidase units
- B-gal activity [3]: 3163 β-galactosidase units
- B-gal activity [4]: 3867 β-galactosidase units
- B-gal activity [5]: −4 β-galactosidase units
- B-gal activity [6]: 45 β-galactosidase units
- B-gal activity (LexA eDHFR / B42 rGR2): 5555 β-galactosidase units
- B-gal activity [7]: −5 β-galactosidase units
- B-gal activity [8]: 30 β-galactosidase units
